Measured values published in patent publication US10874636B2, “Application of substituted cinnamamide derivatives in preparation of anti-anxiety medication” (TASLY PHARMACEUTICAL GROUP CO., LTD., priority 2016, dated 2020).

Tests used:
mice = experiment: Elevated plus-maze test for mice; format: in vivo, ICR male mice; conditions: 10 mg/kg intragastric for 1 week; in words
Procedure: 247 ICR male mice aged 6-8 weeks with the weight of 18-22 g were taken and fed adaptively for 1 week. Then, these mice were evenly divided, at random, into 19 groups based on their weights. Intragastric administration was conducted once a day according to the drugs and dosages listed in Table 1, which lasted for 7 consecutive days. 20 minutes after administration on the 7th day, the elevated plus-maze test was conducted.
The elevated plus-maze (EPM) for mice were composed of two opposite open arms (50 cm×10 cm) and two opposite enclosed arms (50 cm×10 cm×40 cm), wherein upper portions of the enclosed arms were not capped, an open portion of 10 cm×10 cm was located in the middle of the maze, and the maze was 50 cm away from the ground. The test was conducted in a quite environment at a time period ranging from 13:00 to 18:00.
The open-arms entries (OE) and enclosed-arms entries, as well as the residence time in two arms, of the mice, within 5 minutes, were recorded respectively, and the percentage of the open-arms entries (OE %) and that of the open-arms time (OT %) for each group of mice with respect to the total entries into the two arms and the total residence time in the two arms therein were calculated respectively.
Analysis was conducted using SPSS 11.5 software, and data were represented by x±S, the significance of differences between groups was compared using the analysis of variance, differences were significant while P was less than 0.05.

rats = experiment: Drinking conflict experiment for rats (Vogel test); format: in vivo, SD male rats; conditions: for Effect on water licks of the rats during the punished session compared with the solvent control groups: 5 mg/kg intragastric for 10 days, in words; for Water licks of rats during punished session: 5 mg/kg intragastric once a day for 10 days, test half an hour after final administration, 3 minutes, 0.3 mA, x±S
Procedure: 230 SD male rats with the weight of 180-220 g were taken and fed adaptively for 1 week. Then, these rats were divided, at random, into 19 groups based on their weights, 12-13 rats in each group. Intragastric administration was conducted one a day according to the drugs and dosages listed in Table 2, which lasted for 10 consecutive days. Water deprivation 48 hours before the final administration, and non-punitive drinking training was conducted on the 9th day; on the 10th day, half an hour after the final intragastric administration of all the groups, the punitive experimental test was conducted.
On the first stage (non-punitive drinking training): after water deprivation for 24 hours, the rats were placed in operation boxes individually to explore thoroughly, until they found bottle mouths and began to lick water, water licks of the rats within 3 minutes under the conditions of no electric shock (the condition was set as follows: the strength of electric shock was 0 mA) were automatically recorded by counters, and rats whose water licks were less than 300 were eliminated. On the second stage (punitive experiment): the above rats which were not eliminated were placed in the operation boxes after continuing the water deprivation for 24 hours (48 hours in total). The rats could find the bottle mouths rapidly and begin to lick water, the instruments began to time automatically and imparted one electric shock (the ratio of licks to the number of electric shocks was 20:1) while the water licks reached to 20, wherein the strength of electric shocks was 0.3 mA, lasting for 2 seconds, but these rats may control the length of the time for which they were electrically shocked by keeping away from the bottle mouths. Water licks of the rats during the punished session (3 minutes) were recorded.
Observational indexes of the Vogel drinking conflict model: water licks of the rats during the punished session.

Row | Compound | Effect on open-arms entries of the mice compared with the solvent control groups (mice) | Effect on open-arms time of the mice compared with the solvent control groups (mice) | Effect on water licks of the rats during the punished session compared with the solvent control groups (rats) | Water licks of rats during punished session (rats)
1 | CC(C)CNC(=O)c1cc(O)c(O)c(C(F)(F)F)c1 [III-11, 3,4-dihydroxyl-5-trifluoromethyl-benzoic acid isobutylamide] | increase the open-arms entries of the mice | prolong their open-arms time | increase water licks of the rats during the punished session | 361.13 ± 38.38
2 | COc1cc(/C=C/C=C/C(=O)NCC(C)C)cc(C(F)(F)F)c1OC [III-13, 5-(5′-trifluoromethyl-3′,4′-dimethoxyphenyl) pentadienoic acid isobutylamide] | increase the open-arms entries of the mice | prolong their open-arms time | increase water licks of the rats during the punished session | 375.67 ± 58.13
3 | N-methyl-(5′-trifluoromethyl-3′,4′-methylenedioxy)-amphetamine hydrochloride [II-16] | increase the open-arms entries of the mice | prolong their open-arms time | increase water licks of the rats during the punished session | 406.56 ± 65.38
